Assay results: patent US10669288B2, “Lanthanide complexes based on triethylenetetramine-N,N,N′,N″,N′″,N′″-hexaacetic acid derivatives” (UNIVERSITE D'ORLEANS, priority 2017, dated 2020)
Values joined by “and” are separate entries in the source; they are usually repeats but may differ in a detail not shown here. Identical values can stand only once.

Experiments:
[1] = Photostability in solution under continuous illumination at 630 nm; assay type: physicochemical; conditions: 3 h continuous illumination at 630 nm; 100 μM, HEPES pH 7.5, room temperature
Source text: The photostabilities of L1 and L1Nd^3+ were studied under continuous illumination at 630 nm (FIG. 2).

[2] = Photophysical properties (absorption, emission, luminescence lifetime, quantum yields) in solution; assay type: physicochemical
Source text: L1 ligand and L1Nd^3+ complex (Example 2) both have broad absorption bands which extend over a wavelength range having values as high as 750 nm with maxima centered at ˜615 and ˜670 nm and molar absorption coefficients up to 5·10^3 M^−1 cm^−1. Upon excitation of the low energy absorption bands located on L1 and on the L1Nd^3+ complex, it is possible to observe broadband emission signals from the chromophore ligand centered at ˜690 nm with a shoulder at ˜740 nm. The complex L1Nd^3+, when excited at a wavelength of 650 nm, produces a narrow emission band with a maximum at 1064 nm which is characteristic of the electronic structure of Nd^3+ resulting from the transition ^4F3/2→^4I11/2. […] As a result, ligand L1 and complex L1Nd^3+ both have excitation and emission wavelengths included in the domain of the biological diagnostic window (FIG. 1).
The quantitative luminescence parameters (luminescence lifetime (i) and luminescence quantum yields centered on L1-(QL) and on Nd^3+-(QNd)) determined on the L1Nd^3+ complex are summarized in Table 3.1.
Relatively short life time values T (in the nanosecond range) and low QNd quantum yields have been measured for the near-infrared emission of Nd^3+ in comparison with the highest corresponding values that have been published to date. […]
The quantum yield of the emission from the ligand is lower by a ratio of 30% for the Nd^3+ complex relative to the L1 ligand. […] It is important to point out that narrow Nd^3+ emission band positions are unaffected by microenvironmental changes, which is a major advantage over the “wavelength” indocyanine green commercial fluorophore. of similar excitation (Fernandez-Fernandez, R. Manchanda, T. Lei, D. A. Carvajal, Y. Tang, S. Z. Razza Kazmi, A. J. McGoron, Comparative study of the optical and heat generation properties of IR820 and indocyanine green, Molecular imaging, 11 (2012) 99 and S. Mordon, J. M. Devoisselle, S. Soulie-Begu, T. Desmetter, Indocyanine green: Physicochemical factors affecting its fluorescence in vivo, Microvascular Research, 55 (1998) 146-152).

loss of initial emission intensity [1]: ~70%
absorption maxima ([2]; broad absorption bands extending to 750 nm, HEPES buffer): ~615 nm and ~670 nm
QL(%) (quantum yield centered on L1) ([2]; excitation at 620 nm, emission collected 640-850 nm, 100 μM, pH = 7.5, room temperature): 0,257(5) %
broadband emission from the chromophore ligand, centre ([2]; excitation of low energy absorption bands, shoulder at ~740 nm): ~690 nm
Compound: NCCNc1ccc(NCCNC(=O)CN(CCN(CCN(CCN(CC(=O)O)CC(=O)O)CC(=O)O)CC(=O)O)CC(=O)O)c2c1C(=O)c1c(O)ccc(O)c1C2=O [Compound L1, 3-(2-((2-((4-((2-aminoethyl)amino)-5,8-di hydroxy-9,10-dioxo-9,10-dihydroanthracen-1-yl)aminoacid)ethyl)amino)-2-oxoethyl)-6,9,12-tris(carboxymethyl)-3,6,9,12-tétraazatétradécane-1,14-dioic]
